According to US20220088024A1, “METHODS FOR TREATING CANCER USING TOZADENANT” (Biotie Therapies, Inc., priority 2018, published 2022):
Read-outs that look alike come from different tables or passages of the source.

Experiment: Example 11: plasma pharmacokinetics (toxicokinetics) of tozadenant in mice after twice daily oral administration
Assay type: in vivo, Crl:CD1(ICR) mice
Details: male, Crl:CD1(ICR), mouse, plasma, po
Experimental: The plasma pharmacokinetics and exposure levels of tozadendant have been documented in mice after oral administration, the same route of administration as tozadenant was dosed in the oncology efficacy studies.
The PK of tozadenant in mice was compared across a range of doses and dose frequencies. […]
Groups of mice of the Crl:CD1(ICR) strain were dosed, as follows:
The vehicle for the tozadenant in this mouse PK study was 1.6% (w/v) Avicel RC-591 (FMC), 0.2% (v/v) Tween 80, 0.18% (w/v) methylparaben and 0.02% (w/v) propylparaben in reverse osmosis water, pH 6.0±0.3. The 1.6% (w/v) Avicel RC-591 (FMC) was supplied by Biopolymer International, Brussels, Belgium. The 0.2% (v/v) Tween 80, 0.18% (w/v) methylparaben and 0.02% (w/v) propylparaben in reverse osmosis water, pH 6.0±0.3 was supplied by and Sigma-Aldrich Co Ltd, Poole, UK. This is the same formulation used for the mouse oncology model oral dosing.
The test article was administered orally by gavage, as follows:
Groups 1 to 4: Twice for one day (0 and 8 hours apart relative to initial dose)
Group 5: Twice for one day (0 and 12 hours apart relative to initial dose)
Blood samples for toxicokinetics (0.25 mL nominal) were taken from all toxicokinetic animals (subgroup 2), as follows:
For animals dosed at 0, 8 or 12 hour intervals, sampling time with respect to dose was symmetrical in each animal, for example, if an animal was sampled 0.5 hours after the first dose, it was sampled 0.5 hours after the second dose. The second sample obtained from each animal was collected under terminal anaesthesia.
Samples were taken from the orbital sinus (with the exception of Group 3 animals at the 10 hour bleed, which were taken by cardiac puncture) under isoflurane anaesthesia into K2EDTA. Samples were gently inverted to ensure mixing with anticoagulant, placed on a blood roller for at least one minute and then placed in a Kryorack until centrifugation.
Centrifugation was carried out at approximately 4-8° C. within one hour of collection. The resultant plasma from all samples was separated, transferred to uniquely labelled clear polypropylene tubes and frozen immediately at approximately <−10 to −30° C. Samples were analyzed at Covance.
Tozadenant was quantitated using protein precipitation followed by liquid chromatography mass spectrometry technique for quantification. This bioanalytical method was previously established and validated for tozadenant in mouse plasma.

COc1ccc(N2CCOCC2)c2sc(NC(=O)N3CCC(C)(O)CC3)nc12 [SYN-115, 4-hydroxy-4-methyl-piperidine-1-carboxylic acid (4-methoxy-7-morpholin-4-yl-benzothiazol-2-yl)-amide]
AUC (100 mg/kg/day, Group 1, Male, 100 mg/kg/day (50 mg/kg/dose), oral, dosing at 0, 8 hr, read-out: AUC8-24): 1570 ng·h/mL
Cmax (100 mg/kg/day, Group 1, Male, 100 mg/kg/day (50 mg/kg/dose), oral, dosing at 0, 8 hr, read-out: Cmax): 764 ng/mL
Tmax (100 mg/kg/day, Group 1, Male, 100 mg/kg/day (50 mg/kg/dose), oral, dosing at 0, 8 hr, read-out: Tmax): 9 h
Tmax (100 mg/kg/day, mice, 100 mg/kg/day (50 mg/kg/dose×2) oral, 1 hour after the second dose, read-out: Average Tmax): 9 h
Cmax (100 mg/kg/day, mice, 100 mg/kg/day (50 mg/kg/dose×2) oral, read-out: Average Cmax): 764 ng/mL
AUC(0-t) (100 mg/kg/day, mice, 100 mg/kg/day (50 mg/kg/dose×2) oral, read-out: Average daily AUC0-24): 3520 ng·h/mL
AUC(0-inf) (300 mg/kg/day, Group 2, Male, 300 mg/kg/day (150 mg/kg/dose), oral, dosing at 0, 8 hr): 9930 ng·h/mL
AUC(0-t) (300 mg/kg/day, Group 2, Male, 300 mg/kg/day (150 mg/kg/dose), oral, dosing at 0, 8 hr, read-out: AUC0-8): 5030 ng·h/mL
AUC(0-t) (300 mg/kg/day, Group 2, Male, 300 mg/kg/day (150 mg/kg/dose), oral, dosing at 0, 8 hr, read-out: AUC0-24): 9900 ng·h/mL
AUC (300 mg/kg/day, Group 2, Male, 300 mg/kg/day (150 mg/kg/dose), oral, dosing at 0, 8 hr, read-out: AUC8-24): 4870 ng·h/mL
Cmax (300 mg/kg/day, Group 2, Male, 300 mg/kg/day (150 mg/kg/dose), oral, dosing at 0, 8 hr, read-out: Cmax): 1720 ng/mL
Tmax (300 mg/kg/day, Group 2, Male, 300 mg/kg/day (150 mg/kg/dose), oral, dosing at 0, 8 hr, read-out: Tmax): 8.8 h
half-life (300 mg/kg/day, Group 2, Male, 300 mg/kg/day (150 mg/kg/dose), oral, dosing at 0, 8 hr, read-out: t1/2 (converted)): 0.971 h
AUC(0-t) (1000 mg/kg/day, Group 3, Male, 1000 mg/kg/day (500 mg/kg/dose), oral, dosing at 0, 8 hr, read-out: AUC0-8): 13800 ng·h/mL
AUC(0-t) (1000 mg/kg/day, Group 3, Male, 1000 mg/kg/day (500 mg/kg/dose), oral, dosing at 0, 8 hr, read-out: AUC0-24): 29900 ng·h/mL
AUC (1000 mg/kg/day, Group 3, Male, 1000 mg/kg/day (500 mg/kg/dose), oral, dosing at 0, 8 hr, read-out: AUC8-24): 16100 ng·h/mL
Cmax (1000 mg/kg/day, Group 3, Male, 1000 mg/kg/day (500 mg/kg/dose), oral, dosing at 0, 8 hr, read-out: Cmax): 3610 ng/mL
Tmax (1000 mg/kg/day, Group 3, Male, 1000 mg/kg/day (500 mg/kg/dose), oral, dosing at 0, 8 hr, read-out: Tmax): 10.2 h
Tmax (2000 mg/kg/day, 0, 8 hours dosing, all groups except females at 2000 mg/kg/day, read-out: Tmax (post dose, following the second dose)): 0.8 to 2.2 h
AUC(0-inf) (2000 mg/kg/day, Group 4, Male, 2000 mg/kg/day (1000 mg/kg/dose), oral, dosing at 0, 8 hr): 43100 ng·h/mL
AUC(0-t) (2000 mg/kg/day, Group 4, Male, 2000 mg/kg/day (1000 mg/kg/dose), oral, dosing at 0, 8 hr, read-out: AUC0-8): 20500 ng·h/mL
AUC(0-t) (2000 mg/kg/day, Group 4, Male, 2000 mg/kg/day (1000 mg/kg/dose), oral, dosing at 0, 8 hr, read-out: AUC0-24): 43000 ng·h/mL
AUC (2000 mg/kg/day, Group 4, Male, 2000 mg/kg/day (1000 mg/kg/dose), oral, dosing at 0, 8 hr, read-out: AUC8-24): 22500 ng·h/mL
Cmax (2000 mg/kg/day, Group 4, Male, 2000 mg/kg/day (1000 mg/kg/dose), oral, dosing at 0, 8 hr, read-out: Cmax): 5080 ng/mL
Tmax (2000 mg/kg/day, Group 4, Male, 2000 mg/kg/day (1000 mg/kg/dose), oral, dosing at 0, 8 hr, read-out: Tmax): 9 h
half-life (2000 mg/kg/day, Group 4, Male, 2000 mg/kg/day (1000 mg/kg/dose), oral, dosing at 0, 8 hr, read-out: t1/2 (converted)): 2.02 h
AUC(0-inf) (2000 mg/kg/day, Group 5, Male, 2000 mg/kg/day (1000 mg/kg/dose), oral, dosing at 0, 12 hr): 31300 ng·h/mL
AUC(0-t) (2000 mg/kg/day, Group 5, Male, 2000 mg/kg/day (1000 mg/kg/dose), oral, dosing at 0, 12 hr, read-out: AUC0-12): 17800 ng·h/mL
AUC(0-t) (2000 mg/kg/day, Group 5, Male, 2000 mg/kg/day (1000 mg/kg/dose), oral, dosing at 0, 12 hr, read-out: AUC0-24): 31100 ng·h/mL
AUC (2000 mg/kg/day, Group 5, Male, 2000 mg/kg/day (1000 mg/kg/dose), oral, dosing at 0, 12 hr, read-out: AUC12-24): 13300 ng·h/mL
Cmax (2000 mg/kg/day, Group 5, Male, 2000 mg/kg/day (1000 mg/kg/dose), oral, dosing at 0, 12 hr, read-out: Cmax): 6440 ng/mL
Tmax (2000 mg/kg/day, Group 5, Male, 2000 mg/kg/day (1000 mg/kg/dose), oral, dosing at 0, 12 hr, read-out: Tmax): 1.1 h
half-life (2000 mg/kg/day, Group 5, Male, 2000 mg/kg/day (1000 mg/kg/dose), oral, dosing at 0, 12 hr, read-out: t1/2 (converted)): 1.36 h
Tmax (2000 mg/kg/day, males, 0, 12 hour dosing, read-out: Tmax (following the first dose)): 1.1 h
half-life (mice, all dose levels where calculated, read-out: Half-lives): 1 to 2 h
